Measured values from publication PMC4977651, “Molecular features of biguanides required for targeting of mitochondrial respiratory complex I and activation of AMP-kinase” (BMC Biology, 2016).
Where “and” joins values, the source holds several entries; their conditions need not be identical. Identical values can stand only once. Like-named read-outs stand apart in the source and are kept apart here.

Key:
[1] = target: mouse heart mitochondrial membranes (complex I) (Mus musculus, UniProt P03888+P03899+Q91WD5+Q9DC70); experiment: NADH:O2 oxidoreduction by mouse heart mitochondrial membranes; format: biochemical; conditions: for LogIC50 (best fit value): log of IC50 in mM
Procedure: (§1) Complex I and mitochondrial membranes were prepared from Bos taurus (bovine) heart. Intact mitochondria were isolated from rat liver and mouse heart and liver. Membranes were prepared from mouse heart mitochondria by 5 s bursts of sonication at 4 °C and collected by centrifugation (75,000 × g, 1 h).
Assays were performed at 32 °C in a SpectraMax 96-well plate reader. NADH:decylubiquinone oxidoreduction by complex I at 0.5 μg mL^−1 was measured in 20 mM Tris-HCl (pH 7.2), 0.15 % soy bean asolectin (Avanti Polar Lipids), and 0.15 % 3-((3-cholamidopropyl)dimethylammonium)-1-propanesulfonate (CHAPS, Merck Chemicals Ltd), with 200 μM decylubiquinone and 200 μM NADH, and monitored using ε340–380(NADH) = 4.81 mM^−1 cm^−1 [23]. Catalysis was initiated by addition of NADH and maximal rates determined by linear regression. NADH:O2 oxidoreduction by membranes was measured similarly but using 5 μg mL^−1 membranes in 10 mM Tris-HCl (pH 7.4) and 250 mM sucrose using 200 μM NADH and supplemented with 0.15 mM horse heart cytochrome c (Sigma-Aldrich Ltd.). Succinate:O2 oxidoreduction was measured using 40 μg mL^−1 membranes in 5 mM succinate in 10 mM Tris-HCl (pH 7.4) as described previously. Control experiments included NaCl (to match the ionic strength) or DMSO, as appropriate.
Experimental values are reported as mean averages ± standard deviation (SD) of technical replicates for large sample sizes and mean averages ± standard error of the mean (SEM) of technical replicates for small sample sizes. Data were analyzed by the unpaired two-tailed Student’s t test. IC50 values were determined using the standard dose-effect relationship (activity (%) = 100 × IC50 / (IC50 + [inhibitor]^m) with the Hill Slope (m) set to unity for purified complex I) and are reported with 95 % confidence intervals.

[2] = system: HepG2 cells; experiment: Rotenone-sensitive oxygen consumption rate in intact HepG2 cells; format: cell-based, human; conditions: for rotenone sensitive OCR after 6 hours of biguanide exposure, % control, average / rotenone sensitive OCR after 6 hours of biguanide exposure, average: HEPG2 cells, biguanide at IC50/10; for rotenone sensitive OCR after 6 hours of biguanide exposure, average: OCR normalized to OCR immediately prior to biguanide addition; for inhibition of rotenone-sensitive respiration (in words): intact HepG2 cells, biguanide at IC50/10, monitored for 6 h
Procedure: (§2) 143B (CRL-8303 from ATCC), HepG2 (85011430 from The Health Protection Agency), and MDBK (CCL-22 from ATCC) cells were grown on Dulbecco’s modified Eagle’s medium (DMEM) supplemented with 10 % fetal bovine serum (FBS, Thermo Fisher Scientific) at 37 °C in 5 % CO2. All cells were confirmed as negative for mycoplasma.
(§3) Oxygen consumption rates (OCRs) were measured using a Seahorse XF96 extracellular flux analyzer at 37 °C. For intact cell measurements, 1.4 × 10^4 143B, HepG2, or MDBK cells were plated (per well) in DMEM containing 10 % FBS into Seahorse Bioscience Inc. XF96 plates and incubated for ~12 h at 37 °C in 5 % CO2. Then, the medium was exchanged for assay buffer containing DMEM, 4.5 g L^−1 glucose, 1 mM pyruvate, 32 mM NaCl, 2 mM GlutaMAX, 15 mg L^−1 phenol red, and 20 mM HEPES (pH 7.4 at 37 °C) and the cells placed in a CO2-free incubator at 37 °C for 30 min. Basal oxygen consumption rates were established before the addition of biguanides at one-tenth of their IC50 (IC50/10), and followed for ~ 6 h before the addition of rotenone (2 μM).
(§4) Rotenone-sensitive OCRs were calculated by subtracting the rotenone-insensitive rates (determined at the end of the experiment). OCRs were normalized by dividing by the OCR recorded immediately prior to the addition of biguanide. For rate of uptake calculations, the OCRs at time points after biguanide addition were divided by the OCRs at the same time points in control experiments. Data from wells with failed port injections were excluded from the analyses. The respiratory control ratio (RCR) values (state III versus state IV respiration) were ~11 and ~6 for permeabilized MDBK and 143B cells, respectively.

[3] = system: MDBK cells; experiment: Rotenone-sensitive oxygen consumption rate in intact MDBK cells; format: cell-based, Bos taurus; parameters: key to rotenone sensitive OCR after 40 mins of biguanide exposure / rotenone sensitive OCR after 40 mins of biguanide exposure, average: % of OCR recorded immediately before biguanide addition; conditions: biguanide at IC50/10; for rotenone sensitive OCR after 6 hours of biguanide exposure, % control, average / rotenone sensitive OCR after 6 hours of biguanide exposure, average: MDBK cells; for rotenone sensitive OCR after 6 hours of biguanide exposure, average: OCR normalized to OCR immediately prior to biguanide addition; for rotenone sensitive OCR after 40 mins of biguanide exposure, % control, average / rotenone sensitive OCR after 40 mins of biguanide exposure, average / rotenone sensitive OCR after 40 mins of biguanide exposure / rotenone sensitive OCR after 40 mins of biguanide exposure, % control: MDBK intact cells; for rotenone sensitive OCR after 40 mins of biguanide exposure, % control, average / rotenone sensitive OCR after 40 mins of biguanide exposure, average: average of replicates; for rotenone sensitive OCR after 40 mins of biguanide exposure / rotenone sensitive OCR after 40 mins of biguanide exposure, % control: individual replicates
Procedure: as §2, §3, §4

[4] = system: rat liver mitochondria; experiment: ADP-stimulated rotenone-sensitive OCR in isolated rat liver mitochondria; format: biochemical; parameters: rotenone sensitive OCR after ADP stimulation, individual replicates / rotenone sensitive OCR after ADP stimulation, average: unit not given here; conditions: for rotenone sensitive OCR after ADP stimulation, % of control, average / rotenone sensitive OCR after ADP stimulation, average: average of replicates; for rotenone sensitive OCR after ADP stimulation, % of control, individual replicates / rotenone sensitive OCR after ADP stimulation, individual replicates: replicate 1-5
Procedure: as §1
Isolated mitochondria were monitored using a Seahorse XF96 extracellular flux analyzer at 32 °C. Mouse heart mitochondria, and mouse and rat liver mitochondria were plated into XF96 plates at 4 and 16–20 μg per well, respectively, in 220 mM mannitol, 70 mM sucrose, 10 mM KH2PO4, 5 mM MgCl2, 1 mM EGTA, 0.2 % fatty acid-free BSA, and 2 mM HEPES (pH 7.4 at 37 °C) with 10 mM glutamate and 10 mM malate and adhered by centrifugation (2000 × g, 20 min, 4 °C). The medium was supplemented with a further 5 mM glutamate and 5 mM malate and the mitochondria incubated for 15 min. Then two baseline readings were taken before the biguanides were added at IC50/5. Biguanides were allowed to accumulate for 15–20 min before respiration was […] by the addition of 4 mM ADP. Rotenone (2 μM) was added at the end of the experiment. Data from wells with failed port injections were excluded from the analyses. The RCR values (state III versus state IV respiration) were 3.4, 4.8, and 4.6 for mouse heart, rat liver, and mouse liver, respectively.

[5] = Prism variable slope fit, Bottom 0, Top 100, read-out: IC50 (best fit value)
[6] = read-out: IC50 (best fit value), Prism variable slope fit, Bottom 0, Top 100

Chain of mouse heart mitochondrial membranes (complex I) (P03899 whole entry): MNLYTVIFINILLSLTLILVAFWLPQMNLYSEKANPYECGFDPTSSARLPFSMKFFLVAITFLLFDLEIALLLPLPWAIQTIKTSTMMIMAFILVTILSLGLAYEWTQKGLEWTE
Chain of mouse heart mitochondrial membranes (complex I) (P03888 whole entry): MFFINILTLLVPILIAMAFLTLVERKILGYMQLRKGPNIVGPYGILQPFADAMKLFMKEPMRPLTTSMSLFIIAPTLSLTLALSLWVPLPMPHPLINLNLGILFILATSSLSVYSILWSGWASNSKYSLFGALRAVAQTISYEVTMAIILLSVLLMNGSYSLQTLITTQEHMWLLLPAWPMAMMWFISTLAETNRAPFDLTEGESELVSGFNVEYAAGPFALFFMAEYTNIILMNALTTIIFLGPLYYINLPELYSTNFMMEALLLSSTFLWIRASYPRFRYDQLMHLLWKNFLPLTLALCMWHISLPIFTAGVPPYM
Chain of mouse heart mitochondrial membranes (complex I) (Q9DC70 36-224): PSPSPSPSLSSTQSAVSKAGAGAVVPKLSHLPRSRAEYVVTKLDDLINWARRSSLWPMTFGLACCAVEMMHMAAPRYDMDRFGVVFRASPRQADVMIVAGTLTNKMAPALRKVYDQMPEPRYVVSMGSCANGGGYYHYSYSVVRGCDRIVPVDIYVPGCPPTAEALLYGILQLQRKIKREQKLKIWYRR
Chain of mouse heart mitochondrial membranes (complex I) (Q91WD5 34-463): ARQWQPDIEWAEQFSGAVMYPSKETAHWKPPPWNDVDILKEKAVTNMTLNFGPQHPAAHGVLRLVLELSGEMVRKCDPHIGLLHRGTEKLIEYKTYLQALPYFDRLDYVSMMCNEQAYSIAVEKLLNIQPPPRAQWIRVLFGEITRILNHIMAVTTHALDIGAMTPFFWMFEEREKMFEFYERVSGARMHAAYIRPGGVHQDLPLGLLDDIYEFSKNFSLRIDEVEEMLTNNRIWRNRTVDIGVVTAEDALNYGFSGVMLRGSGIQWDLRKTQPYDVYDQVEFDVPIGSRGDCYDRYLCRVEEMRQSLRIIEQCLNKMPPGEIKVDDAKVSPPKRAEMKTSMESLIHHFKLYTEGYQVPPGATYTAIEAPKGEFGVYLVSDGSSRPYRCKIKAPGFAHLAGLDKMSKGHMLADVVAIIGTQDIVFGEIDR

Compound	HillSlope (best fit value) ([1]; Prism variable slope fit)	IC50 [1, 5]	LogIC50 (best fit value) ([1]; Prism variable slope fit)	rotenone sensitive OCR after 6 hours of biguanide exposure, % control, average [2]	rotenone sensitive OCR after 6 hours of biguanide exposure, average [2]	inhibition of rotenone-sensitive respiration (in words) [2]	rotenone sensitive OCR after 6 hours of biguanide exposure, % control, average [3]	rotenone sensitive OCR after 6 hours of biguanide exposure, average [3]	rotenone sensitive OCR after 40 mins of biguanide exposure, % control, average [3]	rotenone sensitive OCR after 40 mins of biguanide exposure, average [3]	rotenone sensitive OCR after 40 mins of biguanide exposure [3]	rotenone sensitive OCR after 40 mins of biguanide exposure, % control [3]	rotenone sensitive OCR after ADP stimulation, % of control, average [4]	rotenone sensitive OCR after ADP stimulation, average [4]	rotenone sensitive OCR after ADP stimulation, % of control, individual replicates [4]	rotenone sensitive OCR after ADP stimulation, individual replicates [4]	IC50 [1, 6]	also measured
CC(C)N=C(N)N=C(N)N [compound 4, 1-(diaminomethylidene)-2-(propan-2-yl)guanidine]	-1.082	30100 µM	1.478	0.42 % control	0.43	inhibit respiration	18.29 % control	18.34	93.72 % control	95.36	95.78 and 95.98 and 96.95 and 94.61 and 94.86 and 94.00	94.13 % control and 94.32 % control and 95.28 % control and 92.98 % control and 93.22 % control and 92.38 % control	8.94 % of control	2.45	10.19 % of control and 7.26 % of control and 8.19 % of control and 10.12 % of control	2.79 and 1.99 and 2.25 and 2.77		remaining activity at 620 µM ([1]; inhibitor 0.62 mM, read-out: average % (rate, % of no-inhibitor control)): 103%; remaining activity at 1320 µM ([1]; inhibitor 1.32 mM, read-out: average % (rate, % of no-inhibitor control)): 99.1%; remaining activity at 3120 µM ([1]; inhibitor 3.12 mM, read-out: average % (rate, % of no-inhibitor control)): 93.2%; remaining activity at 6250 µM ([1]; inhibitor 6.25 mM, read-out: average % (rate, % of no-inhibitor control)): 80.8%; remaining activity at 15600 µM ([1]; inhibitor 15.60 mM, read-out: average % (rate, % of no-inhibitor control)): 67.2%; remaining activity at 62500 µM ([1]; inhibitor 62.50 mM, read-out: average % (rate, % of no-inhibitor control)): 30.7%; estimated rate of uptake into mitochondria ([2]; HepG2 cells, 3 mM in the extracellular medium): > 1.5 mM/min
CC(C)N=C(N)N=C(N)NC(C)C [compound 5, N-(propan-2-yl)-1-3-(propan-2-yl)carbamimidamidomethanimidamide]	-1.037	292 µM	-0.5351	88.37 % control	91.14	do not	95.30 % control	95.59	97.92 % control	99.64	98.03 and 101.32 and 101.34 and 98.05 and 98.68 and 101.35 and 98.70	96.34 % control and 99.57 % control and 99.60 % control and 96.36 % control and 96.98 % control and 99.61 % control and 97.00 % control	92.45 % of control	25.35	107.71 % of control and 88.69 % of control and 80.94 % of control	29.53 and 24.32 and 22.19		
[H]/N=C(/N)N/C(=N/[H])NCCc1ccccc1 [phenformin, reference compound]	-0.7733		-0.09624	1.73 % control	1.79		42.78 % control	42.91	95.24 % control	96.91	97.35 and 95.76 and 94.48 and 101.29 and 95.15 and 97.44	95.67 % control and 94.11 % control and 92.85 % control and 99.55 % control and 93.51 % control and 95.76 % control	22.17 % of control	6.08	23.43 % of control and 20.89 % of control and 22.08 % of control and 22.26 % of control	6.42 and 5.73 and 6.05 and 6.10	801 µM	remaining activity at 130 µM ([1]; inhibitor 0.13 mM, read-out: average % (rate, % of no-inhibitor control)): 80.6%; remaining activity at 250 µM ([1]; inhibitor 0.25 mM, read-out: average % (rate, % of no-inhibitor control)): 70.4%; remaining activity at 500 µM ([1]; inhibitor 0.50 mM, read-out: average % (rate, % of no-inhibitor control)): 59.3%; remaining activity at 1000 µM ([1]; inhibitor 1.00 mM, read-out: average % (rate, % of no-inhibitor control)): 46.6%; remaining activity at 2000 µM ([1]; inhibitor 2.00 mM, read-out: average % (rate, % of no-inhibitor control)): 33.2%; remaining activity at 5000 µM ([1]; inhibitor 5.00 mM, read-out: average % (rate, % of no-inhibitor control)): 18.7%; remaining activity at 10000 µM ([1]; inhibitor 10.00 mM, read-out: average % (rate, % of no-inhibitor control)): 12.3%
[H]/N=C(\N/C(=N/[H])Nc1ccc(Cl)cc1)NC(C)C [proguanil, reference compound]	-0.7979		-1.959	93.06 % control	95.98		89.87 % control	90.15	96.96 % control	98.65	102.33 and 100.74 (2×) and 97.32 and 96.18 and 94.63	100.56 % control and 99.00 % control and 99.01 % control and 95.64 % control and 94.52 % control and 93.00 % control	91.40 % of control	25.06	82.64 % of control and 94.24 % of control and 97.33 % of control	22.66 and 25.84 and 26.69	11 µM	
